This is an account of results in paper PMC9237807 (Pharmacology Research & Perspectives, 2022).

As a reminder, the koff is the first-order rate constant of dissociation. As a reminder, the kon is the second-order rate constant of association. As usually defined, the Ki is the equilibrium dissociation constant of an inhibitor or competing ligand from its target. Higher therefore signals weaker binding.

For assay [1], the target named is T1, human β1‐adrenoceptor (Homo sapiens, UniProt P08588). Nature of the assay: [3H]-DHA association kinetics. In kind it is binding. Conditions: human β1AR, 37°C.
In a further assay the test system is human β1‐adrenoceptors. The assay is described as follows: Simulated association and dissociation of β-blockers from kinetic parameters. The following applies: 30 × K d (β1), free ligand removed at 5 min.
A further assay relates to human β2‐adrenoceptors. Described as above. The following applies: 30 × K d (β1), free ligand removed at 5 min.
The target in assay [2] is T1, human β1‐adrenoceptor. Nature of the assay: [3H]-DHA competition kinetic binding assay. Conditions: for koff / kon: human β1AR, CHO membranes, HBSS + 100 μM GTP, 37°C, ~3 nM [3H]-DHA.
Assay [3] addresses T1, human β1‐adrenoceptor. The assay is described as follows: [3H]-DHA equilibrium competition binding.
[4] abbreviates: global fit, 3 radioligand concentrations.

A value given as a limit tells only on which side of the number the result lay.

T1 sequence (P08588 whole entry): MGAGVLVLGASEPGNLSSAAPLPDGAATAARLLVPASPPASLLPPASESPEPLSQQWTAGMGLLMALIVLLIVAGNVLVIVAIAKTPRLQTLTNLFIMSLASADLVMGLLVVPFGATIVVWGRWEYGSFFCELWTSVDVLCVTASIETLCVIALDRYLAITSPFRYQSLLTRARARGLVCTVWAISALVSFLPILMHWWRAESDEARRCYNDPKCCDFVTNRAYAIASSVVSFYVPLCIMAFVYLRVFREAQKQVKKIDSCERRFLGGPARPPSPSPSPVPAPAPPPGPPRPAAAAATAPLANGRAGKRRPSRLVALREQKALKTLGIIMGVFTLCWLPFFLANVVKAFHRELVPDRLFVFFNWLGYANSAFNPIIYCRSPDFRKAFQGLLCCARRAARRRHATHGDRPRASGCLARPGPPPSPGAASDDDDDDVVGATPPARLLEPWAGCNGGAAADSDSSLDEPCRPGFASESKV

Regarding “1‐[4,6‐propyl‐^3H]dihydroalprenolol [[^3H]‐DHA]”, at human β1‐adrenoceptor [1] (setting [4]), the “k off of radioligand” value was 0.00767 ± 0.0005 s⁻¹ and the “k on of radioligand” value is 5.28 ± 0.48 × 10^8 M^−1 min^−1. Also, the Kd at human β1‐adrenoceptor [1] (read-out: K d of radioligand, from the kinetic fit) is 0.94 nM.

In the case of `CC(C)NC[C@H](O)COc1ccc(CC(N)=O)cc1` [Atenolol, (S)‐(−) atenolol], the “time until receptor binding is fully reversed (simulation)” value in the assay on human β1‐adrenoceptors (β1 and β2 adrenoceptors simulated) was not above 5 min.

As to `CC(C)NCC(O)COc1ccc(COCCOC(C)C)cc1` (centres unmarked) [Bisoprolol, bisoprolol hemifumarate], in the assay on human β1‐adrenoceptors, the “time for full dissociation from the β1‐adrenoceptor (simulation)” value is listed as “approximately 40 min”. Besides, the “time for full dissociation from the β2‐adrenoceptor (simulation)” value in the assay with human β2‐adrenoceptors is given as “a matter of seconds”.

Take `CC(C)(Cc1c[nH]c2ccccc12)NCC(O)COc1ccccc1C#N` (centres unmarked) [Bucindolol]: on human β1‐adrenoceptor [2], the Kd was determined as 0.1 ± 0.0004 nM, the koff was 0.00183 s⁻¹ and the kon is 1.85e+07 M⁻¹ s⁻¹. Moreover, at human β1‐adrenoceptor [3], affinity was put at a Ki of 0.269 nM.

`CC(C)(C)NCC(O)COc1cccc2c1CC(O)C(O)C2` (centres unmarked) [Nadolol, nadolol]: on human β1‐adrenoceptor [2], the Kd was 22.4 nM, the koff was found to be 0.00283 ± 0.0005 s⁻¹ and the kon is listed as 7.68 ± 0.79 × 10^6 M^−1 min^−1. The molecule further showed a Ki on human β1‐adrenoceptor [3] of 33.9 nM.
